In ChEMBL document CHEMBL5532657, “Serendipitous discovery of Class I HDAC inhibitors from rational design of molecular glue degraders targeting HDAC” (Eur J Med Chem, 2024):
Calls of active or inactive are those of the source. The calls are words filed in the database; no cut-off is given here.

Legend:
A549 = assay: Antiproliferative activity against human A549 cells assessed as cell growth inhibition at 5 uM incubated for 48 hrs by CCK-8 assay; assay type: functional, cell-based
[1] = biological target: T1, Protein deacetylase HDAC6 (Homo sapiens) (UniProt Q9UBN7); assay: Inhibition of HDAC6 in human RS4-11 cells assessed as effect on alpha-tubulin acetylation by Western blot assay; assay type: cell-based
T1 sequence (whole entry): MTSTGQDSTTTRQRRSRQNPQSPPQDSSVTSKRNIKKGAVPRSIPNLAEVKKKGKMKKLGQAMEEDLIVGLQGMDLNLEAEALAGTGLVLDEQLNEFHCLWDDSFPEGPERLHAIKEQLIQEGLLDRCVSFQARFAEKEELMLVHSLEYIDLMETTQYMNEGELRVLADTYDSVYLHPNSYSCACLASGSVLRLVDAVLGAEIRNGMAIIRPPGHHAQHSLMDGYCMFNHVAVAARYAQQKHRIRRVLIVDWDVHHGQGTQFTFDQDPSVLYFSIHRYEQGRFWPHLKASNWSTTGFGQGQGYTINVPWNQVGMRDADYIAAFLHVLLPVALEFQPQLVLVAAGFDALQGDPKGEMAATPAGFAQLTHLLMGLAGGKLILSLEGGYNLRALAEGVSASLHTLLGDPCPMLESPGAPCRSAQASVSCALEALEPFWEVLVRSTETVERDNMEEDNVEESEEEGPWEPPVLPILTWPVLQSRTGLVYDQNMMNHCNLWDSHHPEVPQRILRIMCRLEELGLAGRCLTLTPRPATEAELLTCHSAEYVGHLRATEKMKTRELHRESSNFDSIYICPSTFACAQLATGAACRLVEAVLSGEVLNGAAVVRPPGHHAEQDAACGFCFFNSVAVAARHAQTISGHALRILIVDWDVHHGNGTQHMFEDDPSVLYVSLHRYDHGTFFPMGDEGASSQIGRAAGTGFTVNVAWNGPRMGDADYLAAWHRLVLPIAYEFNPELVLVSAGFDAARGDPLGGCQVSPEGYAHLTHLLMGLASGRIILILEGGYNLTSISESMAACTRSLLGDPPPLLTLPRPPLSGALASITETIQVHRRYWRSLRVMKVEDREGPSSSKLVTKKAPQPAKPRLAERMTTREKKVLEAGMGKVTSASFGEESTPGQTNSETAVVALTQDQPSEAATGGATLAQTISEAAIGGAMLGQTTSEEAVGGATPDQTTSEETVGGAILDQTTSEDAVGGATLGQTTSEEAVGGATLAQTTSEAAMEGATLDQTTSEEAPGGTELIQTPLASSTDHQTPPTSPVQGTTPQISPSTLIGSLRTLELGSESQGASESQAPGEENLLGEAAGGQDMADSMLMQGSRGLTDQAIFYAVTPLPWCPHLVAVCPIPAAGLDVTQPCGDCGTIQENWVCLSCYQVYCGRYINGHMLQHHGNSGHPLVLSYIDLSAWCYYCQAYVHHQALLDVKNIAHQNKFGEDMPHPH

[2] = biological target: Histone deacetylase (Homo sapiens) (UniProt Q13547+O15379+Q9UBN7+Q92769+Q9UQL6+Q8WUI4+Q9BY41+Q96DB2+P56524+Q9UKV0+Q969S8); assay: Inhibition of HDAC in human RS4-11 cells assessed as upregulation of histone H3 acetylation by Western blot assay; assay type: cell-based
[3] = biological target: T1, Protein deacetylase HDAC6 (Homo sapiens); assay: Induction of HDAC6 degradation in human RS4-11 cells at 0.5 to 10 uM incubated for 12 hrs by Western blotting analysis; assay type: cell-based; details: dose 0.5-10 µM
HeLa = assay: Antiproliferative activity against human HeLa cells assessed as cell growth inhibition at 5 uM incubated for 48 hrs by CCK-8 assay; assay type: functional, cell-based
Histone deacetylase 1 = Histone deacetylase 1 (Homo sapiens, UniProt Q13547); assay: Induction of HDAC1 degradation in human RS4-11 cells at 0.5 to 10 uM incubated for 12 hrs by Western blotting analysis; assay type: cell-based; details: dose 0.5-10 µM
Histone deacetylase 1, sequence (Q13547 whole entry): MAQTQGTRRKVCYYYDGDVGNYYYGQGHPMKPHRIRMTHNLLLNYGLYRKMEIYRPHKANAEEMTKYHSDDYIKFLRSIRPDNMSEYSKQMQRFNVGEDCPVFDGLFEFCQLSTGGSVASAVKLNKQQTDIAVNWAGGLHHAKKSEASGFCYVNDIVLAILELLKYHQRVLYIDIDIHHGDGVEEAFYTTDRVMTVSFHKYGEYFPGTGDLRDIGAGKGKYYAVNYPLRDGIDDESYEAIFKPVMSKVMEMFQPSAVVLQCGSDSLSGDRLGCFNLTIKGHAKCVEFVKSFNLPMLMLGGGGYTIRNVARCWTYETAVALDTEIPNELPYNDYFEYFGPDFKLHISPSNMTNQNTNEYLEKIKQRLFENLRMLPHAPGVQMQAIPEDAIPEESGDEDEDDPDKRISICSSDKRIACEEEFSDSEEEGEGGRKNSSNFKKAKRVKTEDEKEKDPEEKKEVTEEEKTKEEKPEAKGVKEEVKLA

HCT-116 = assay: Antiproliferative activity against human HCT-116 cells assessed as cell growth inhibition at 5 uM incubated for 48 hrs by CCK-8 assay; assay type: functional, cell-based
U-266 = assay: Antiproliferative activity against human U-266 cells assessed as cell growth inhibition incubated for 48 hrs by CCK-8 assay; assay type: functional, cell-based; details: U-266, 48 h
Histone deacetylase 2 = Histone deacetylase 2 (Homo sapiens, UniProt Q92769); assay: Inhibition of HDAC2 in human HeLa cells nuclear extract using BocLys(acetyl)-AMC as substrate incubated for 1 hr by fluorescence plate reader analysis; assay type: subcellular, Nucleus
Histone deacetylase 2, sequence (Q92769 whole entry): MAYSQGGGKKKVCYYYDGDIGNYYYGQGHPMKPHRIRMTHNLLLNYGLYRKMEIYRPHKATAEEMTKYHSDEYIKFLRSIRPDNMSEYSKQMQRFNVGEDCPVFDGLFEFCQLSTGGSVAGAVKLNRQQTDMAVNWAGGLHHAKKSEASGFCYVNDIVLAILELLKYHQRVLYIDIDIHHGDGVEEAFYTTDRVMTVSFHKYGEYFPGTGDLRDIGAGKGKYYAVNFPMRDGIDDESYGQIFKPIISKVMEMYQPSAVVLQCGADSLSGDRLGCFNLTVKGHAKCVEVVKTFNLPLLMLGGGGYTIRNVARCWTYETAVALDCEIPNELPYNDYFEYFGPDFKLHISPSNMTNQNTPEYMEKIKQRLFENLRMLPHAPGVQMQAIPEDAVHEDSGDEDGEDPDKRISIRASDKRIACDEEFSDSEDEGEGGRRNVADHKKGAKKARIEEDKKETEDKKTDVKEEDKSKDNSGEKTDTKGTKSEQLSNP

RPMI-8226 = assay: Antiproliferative activity against human RPMI-8226 cells assessed as cell growth inhibition incubated for 48 hrs by CCK-8 assay; assay type: functional, cell-based; details: RPMI-8226, 48 h
Histone deacetylase 9 = Histone deacetylase 9 (Homo sapiens, UniProt Q9UKV0); assay: Inhibition of HDAC9 in human HeLa cells nuclear extract using BocLys(acetyl)-AMC as substrate incubated for 1 hr by fluorescence plate reader analysis; assay type: subcellular, Nucleus
Histone deacetylase 9, sequence (Q9UKV0 whole entry): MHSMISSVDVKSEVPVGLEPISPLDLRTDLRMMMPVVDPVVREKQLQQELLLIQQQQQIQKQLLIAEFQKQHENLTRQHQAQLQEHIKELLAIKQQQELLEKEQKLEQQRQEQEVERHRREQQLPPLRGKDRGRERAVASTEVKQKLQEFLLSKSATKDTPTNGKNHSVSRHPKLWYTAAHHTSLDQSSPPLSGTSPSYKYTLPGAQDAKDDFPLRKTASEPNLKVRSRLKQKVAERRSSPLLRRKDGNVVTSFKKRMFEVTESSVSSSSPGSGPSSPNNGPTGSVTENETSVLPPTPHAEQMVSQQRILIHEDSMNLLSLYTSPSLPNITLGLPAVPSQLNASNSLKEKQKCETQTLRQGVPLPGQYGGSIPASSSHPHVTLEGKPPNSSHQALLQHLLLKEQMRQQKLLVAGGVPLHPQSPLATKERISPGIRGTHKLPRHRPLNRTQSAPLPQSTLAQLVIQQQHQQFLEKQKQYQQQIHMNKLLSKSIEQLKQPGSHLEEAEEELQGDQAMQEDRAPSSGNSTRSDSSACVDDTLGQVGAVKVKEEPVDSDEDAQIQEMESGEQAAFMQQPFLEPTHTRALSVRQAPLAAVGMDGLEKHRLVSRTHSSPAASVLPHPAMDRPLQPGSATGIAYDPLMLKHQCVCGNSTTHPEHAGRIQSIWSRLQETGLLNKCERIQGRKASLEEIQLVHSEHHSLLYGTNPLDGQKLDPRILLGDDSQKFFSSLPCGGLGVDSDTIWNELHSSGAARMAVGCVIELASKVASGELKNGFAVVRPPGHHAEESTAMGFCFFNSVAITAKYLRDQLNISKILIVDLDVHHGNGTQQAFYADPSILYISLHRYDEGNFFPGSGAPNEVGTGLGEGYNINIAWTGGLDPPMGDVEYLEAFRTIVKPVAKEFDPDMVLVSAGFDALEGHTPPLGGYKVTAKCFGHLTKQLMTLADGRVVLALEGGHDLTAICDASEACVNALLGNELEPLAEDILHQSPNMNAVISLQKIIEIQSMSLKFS

Histone deacetylase 11 = biological target: T2, Histone deacetylase 11 (Homo sapiens, UniProt Q96DB2); assay: Inhibition of HDAC11 in human HeLa cells nuclear extract using BocLys(acetyl)-AMC as substrate incubated for 1 hr by fluorescence plate reader analysis; assay type: subcellular, Nucleus
T2 sequence (Q96DB2 whole entry): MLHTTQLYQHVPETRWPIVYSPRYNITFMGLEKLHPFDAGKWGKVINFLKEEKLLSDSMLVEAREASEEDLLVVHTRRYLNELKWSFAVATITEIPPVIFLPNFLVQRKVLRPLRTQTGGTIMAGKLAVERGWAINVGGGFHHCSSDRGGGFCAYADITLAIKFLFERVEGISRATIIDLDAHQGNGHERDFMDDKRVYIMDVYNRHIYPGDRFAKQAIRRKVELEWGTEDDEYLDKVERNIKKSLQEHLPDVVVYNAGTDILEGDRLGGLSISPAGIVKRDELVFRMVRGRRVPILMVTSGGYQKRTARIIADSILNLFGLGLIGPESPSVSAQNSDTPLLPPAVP

Histone deacetylase 7 = biological target: T3, Histone deacetylase 7 (Homo sapiens, UniProt Q8WUI4); assay: Inhibition of HDAC7 in human HeLa cells nuclear extract using BocLys(acetyl)-AMC as substrate incubated for 1 hr by fluorescence plate reader analysis; assay type: subcellular, Nucleus
T3 sequence (Q8WUI4 whole entry): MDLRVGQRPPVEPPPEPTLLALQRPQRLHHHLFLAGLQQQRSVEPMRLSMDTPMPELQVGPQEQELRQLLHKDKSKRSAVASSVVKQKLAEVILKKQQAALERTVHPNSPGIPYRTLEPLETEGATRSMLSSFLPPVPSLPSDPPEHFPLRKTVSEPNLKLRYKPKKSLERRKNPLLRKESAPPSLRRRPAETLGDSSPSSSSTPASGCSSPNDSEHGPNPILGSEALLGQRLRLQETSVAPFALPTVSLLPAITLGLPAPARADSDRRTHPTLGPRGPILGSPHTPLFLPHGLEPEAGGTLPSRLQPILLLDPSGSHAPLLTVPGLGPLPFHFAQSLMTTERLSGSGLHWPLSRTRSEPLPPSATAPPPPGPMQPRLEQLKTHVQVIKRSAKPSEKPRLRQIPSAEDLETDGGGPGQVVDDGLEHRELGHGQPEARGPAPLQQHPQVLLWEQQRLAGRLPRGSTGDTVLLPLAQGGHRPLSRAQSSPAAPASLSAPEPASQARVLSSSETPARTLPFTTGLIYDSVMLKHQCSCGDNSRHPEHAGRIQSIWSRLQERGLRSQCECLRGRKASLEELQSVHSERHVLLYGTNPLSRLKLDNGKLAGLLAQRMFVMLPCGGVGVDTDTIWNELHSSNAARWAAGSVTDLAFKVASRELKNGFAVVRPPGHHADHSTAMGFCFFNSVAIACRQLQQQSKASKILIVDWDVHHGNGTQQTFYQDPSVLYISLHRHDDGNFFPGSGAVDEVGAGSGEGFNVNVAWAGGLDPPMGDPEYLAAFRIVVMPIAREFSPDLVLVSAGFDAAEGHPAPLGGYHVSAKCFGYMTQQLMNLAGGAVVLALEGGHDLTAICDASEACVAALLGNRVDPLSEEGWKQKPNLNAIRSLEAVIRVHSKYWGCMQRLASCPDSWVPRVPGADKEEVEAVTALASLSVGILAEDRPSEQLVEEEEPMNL

RS4-11 = assay: Antiproliferative activity against human RS4-11 cells assessed as cell growth inhibition incubated for 48 hrs by CCK-8 assay; assay type: functional, cell-based; details: RS4-11, 48 h
K562 = assay: Antiproliferative activity against human K562 cells assessed as cell growth inhibition incubated for 48 hrs by CCK-8 assay; assay type: functional, cell-based; details: K562, 48 h
Histone deacetylase 4 = Histone deacetylase 4 (Homo sapiens, UniProt P56524); assay: Inhibition of HDAC4 in human HeLa cells nuclear extract using BocLys(acetyl)-AMC as substrate incubated for 1 hr by fluorescence plate reader analysis; assay type: subcellular, Nucleus
Histone deacetylase 4, sequence (P56524 whole entry): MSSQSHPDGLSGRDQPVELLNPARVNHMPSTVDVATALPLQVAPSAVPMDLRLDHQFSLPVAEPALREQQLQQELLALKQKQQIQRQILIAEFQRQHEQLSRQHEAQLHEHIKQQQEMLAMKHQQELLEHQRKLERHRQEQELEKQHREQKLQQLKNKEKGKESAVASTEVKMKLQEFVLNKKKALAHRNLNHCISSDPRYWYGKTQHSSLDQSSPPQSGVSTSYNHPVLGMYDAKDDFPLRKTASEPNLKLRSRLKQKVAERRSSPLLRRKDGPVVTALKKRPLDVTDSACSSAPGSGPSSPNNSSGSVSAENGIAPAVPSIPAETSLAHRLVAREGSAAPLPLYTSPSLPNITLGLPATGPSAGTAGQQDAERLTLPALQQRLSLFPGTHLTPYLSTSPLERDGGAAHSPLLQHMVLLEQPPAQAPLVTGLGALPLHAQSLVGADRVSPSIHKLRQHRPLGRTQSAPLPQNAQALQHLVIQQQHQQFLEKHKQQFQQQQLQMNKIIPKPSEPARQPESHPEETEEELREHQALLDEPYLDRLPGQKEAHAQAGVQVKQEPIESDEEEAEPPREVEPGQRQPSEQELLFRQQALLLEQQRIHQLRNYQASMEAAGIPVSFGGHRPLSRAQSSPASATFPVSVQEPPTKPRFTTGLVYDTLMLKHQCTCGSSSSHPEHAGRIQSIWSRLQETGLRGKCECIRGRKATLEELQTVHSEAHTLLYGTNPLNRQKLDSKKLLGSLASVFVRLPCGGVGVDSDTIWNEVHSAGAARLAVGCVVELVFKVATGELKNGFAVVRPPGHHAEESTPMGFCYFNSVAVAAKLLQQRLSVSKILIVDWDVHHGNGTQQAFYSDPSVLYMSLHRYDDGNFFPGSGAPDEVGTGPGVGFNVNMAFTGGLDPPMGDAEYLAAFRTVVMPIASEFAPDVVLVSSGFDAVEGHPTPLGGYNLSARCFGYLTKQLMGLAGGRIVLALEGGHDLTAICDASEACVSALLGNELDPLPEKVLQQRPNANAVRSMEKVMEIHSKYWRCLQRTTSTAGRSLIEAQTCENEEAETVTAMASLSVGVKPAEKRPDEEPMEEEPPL

Activity [1]	inhibition [2]	Activity [3]	Activity (Histone deacetylase 1)	IC50 (Histone deacetylase 2)	IC50 (RPMI-8226)	IC50 (Histone deacetylase 9)	IC50 (Histone deacetylase 11)	IC50 (Histone deacetylase 7)	IC50 (RS4-11)	IC50 (K562)	IC50 (Histone deacetylase 4)	SMILES	Activity (A549)	Activity (HeLa)	Activity (HCT-116)	IC50 (U-266)
inactive	Active	inactive	inactive									O=C(CCCCCCNc1cccc2c1C(=O)N(C1CCC(=O)NC1=O)C2=O)NO (stereo unspecified)	inactive	inactive	inactive	
		inactive	inactive	478 nM	4190 nM	> 2000 nM	> 2000 nM	> 2000 nM	810 nM	21300 nM	> 2000 nM	Nc1ccc(F)cc1NC(=O)c1ccc(CNC(=O)/C=C/c2cccnc2)cc1	inactive	inactive	inactive	4810 nM
		inactive	inactive									O=C(CCCCCCCNc1cccc2c1C(=O)N(C1CCC(=O)NC1=O)C2=O)NCCS (stereo unspecified)	inactive	inactive	inactive	
		inactive	inactive									Nc1cc(F)ccc1NC(=O)CCCCCCCNc1cccc2c1C(=O)N(C1CCC(=O)NC1=O)C2=O (stereo unspecified)	inactive	inactive	inactive	
		inactive	inactive									O=C1CCC(N2C(=O)c3cccc(NCc4ccc(C(=O)NCCS)cc4)c3C2=O)C(=O)N1 (stereo unspecified)	inactive	inactive	inactive	
		inactive	inactive									Nc1cc(F)ccc1NC(=O)c1cn(CCOCCOCCOCCNc2cccc3c2C(=O)N(C2CCC(=O)NC2=O)C3=O)nn1 (stereo unspecified)	inactive	inactive	inactive	
		inactive	inactive									O=C1CCC(N2C(=O)c3cccc(NCCOCCOCCOCCn4cc(C(=O)NO)nn4)c3C2=O)C(=O)N1 (stereo unspecified)	inactive	inactive	inactive	
		inactive	inactive									Nc1ccccc1NC(=O)c1cn(CCOCCOCCOCCNc2cccc3c2C(=O)N(C2CCC(=O)NC2=O)C3=O)nn1 (stereo unspecified)	inactive	inactive	inactive	
		inactive	inactive									Nc1ccccc1NC(=O)c1cn(CCOCCOCCNc2cccc3c2C(=O)N(C2CCC(=O)NC2=O)C3=O)nn1 (stereo unspecified)	inactive	inactive	inactive	
		inactive	inactive									CCNNC(=O)CCCCCCNc1cccc2c1C(=O)N(C1CCC(=O)NC1=O)C2=O (stereo unspecified)	inactive	inactive	inactive	
		inactive	inactive									O=C(CCCCNc1cccc2c1C(=O)N(C1CCC(=O)NC1=O)C2=O)NCCS (stereo unspecified)	inactive	inactive	inactive	
